Experimental findings from patent US9499550B2 (BRISTOL-MYERS SQUIBB COMPANY, priority 2012, dated 2016) are described below.

Assay [1] concerns HCV genotype 1b (Con1) replicon in HUH-7 cells. Description: HCV replicon luciferase reporter assay, genotype 1b. Type of assay: cell-based. To be noted: Hepatitis C virus, Huh-7, 72 h, HCV genotype 1b replicon luciferase assay, 3 days incubation, range class, read-out: LE_1b (EC50, range). Summed up:
(§1)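 Replicon inhibition for both genotypes was measured as Renilla luciferase signal (EnduRen, 7.5 μM final, 2 h) after 3-day, 37° C exposure of replicon-bearing HUH-7 cells in 4% FCS DMEM, 0.5% DMSO. The 1b construct carries S1179I; the 1a H77 construct carries P1496L and S2204I. Twenty-point, 3-fold dilutions were fitted four-parametrically for EC50, and CC50 was taken from multiplexed Cell Titer-Blue.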

The subject of assay [2] is HCV genotype 1a (H77 strain) replicon in HUH-7 cells. Briefly: HCV replicon luciferase reporter assay, genotype 1a. Format: cell-based. To be noted: Hepatitis C virus, Huh-7, 72 h, HCV genotype 1a replicon luciferase assay, 3 days incubation, range class, read-out: LE_1a (EC50, range). Summed up: as §1
A general note: A replicon is a self-replicating genome or part of one, used to study replication in cells.

The EC50 is the concentration at which the effect is half-maximal. Regarding `COCCOc1cnc(O[C@@H]2C[C@H]3C(=O)N[C@]4(C(=O)NS(=O)(=O)C5(C)CC5)C[C@H]4/C=C\CC[C@@H](C)C[C@@H](C)[C@H](NC(=O)OC(C)(C)C)C(=O)N3C2)c2ccc(OC)cc12` [Compound 1153, tert-butyl ((2R,6S,7R,9R,13aS,14aR,16aS,Z)-2-((6-methoxy-4-(2-methoxyethoxyl)isoquinolin-1-yl)oxy)-7,9-dimethyl-14a-(((1-methylcyclopropyl)sulfonyl)carbamoyl)-5,16-dioxo-1,2,3,5,6,7,8,9,10,11,13a,14,14a,15,16,16a-hexadecahydrocyclopropa[e]pyrrolo[1,2-a][1,4]diazacyclopentadecin-6-yl)carbamate], the EC50 in assay [1] and in assay [2] was < 5.46 nM each time.

In the case of `COCCOc1cnc(O[C@@H]2C[C@H]3C(=O)N[C@]4(C(=O)NS(=O)(=O)C5CC5)C[C@H]4/C=C\CC[C@H](C)C[C@@H](C)[C@H](NC(=O)OC(C)(C)C)C(=O)N3C2)c2ccc(OC)cc12` [Compound 1154, tert-butyl ((2R,6S,7R,9S,13aS,14aR,16aS,Z)-14a-((cyclopropylsulfonyl)carbamoyl)-2-((6-methoxy-4-(2-methoxyethoxyl)isoquinolin-1-yl)oxy)-7,9-dimethyl-5,16-dioxo-1,2,3,5,6,7,8,9,10,11,13a,14,14a,15,16,16a-hexadecahydrocyclopropa[e]pyrrolo[1,2-a][1,4]diazacyclopentadecin-6-yl)carbamate], the EC50 in assay [1] and in assay [2] was < 5.46 nM in each case.

As to `COCCOc1cnc(O[C@@H]2C[C@H]3C(=O)N[C@]4(C(=O)NS(=O)(=O)C5CC5)C[C@H]4/C=C\CC[C@@H](C)C[C@@H](C)[C@H](NC(=O)OC(C)(C)C)C(=O)N3C2)c2ccc(OC)cc12` [Compound 1155, tert-butyl ((2R,6S,7R,9R,13aS,14aR,16aS,Z)-14a-((cyclopropylsulfonyl)carbamoyl)-2-((6-methoxy-4-(2-methoxyethoxyl)isoquinolin-1-yl)oxy)-7,9-dimethyl-5,16-dioxo-1,2,3,5,6,7,8,9,10,11,13a,14,14a,15,16,16a-hexadecahydrocyclopropa[e]pyrrolo[1,2-a][1,4]diazacyclopentadecin-6-yl)carbamate], the EC50 in assay [1] and in assay [2] was < 5.46 nM throughout.

`COCCOc1cnc(O[C@@H]2C[C@H]3C(=O)N[C@]4(C(=O)NS(=O)(=O)C5(C)CC5)C[C@H]4/C=C\CC[C@H](C)C[C@@H](C)[C@H](NC(=O)OC4COC4)C(=O)N3C2)c2ccc(OC)cc12` [Compound 1156, oxetan-3-yl((2R,6S,7R,9S,13aS,14aR,16aS,Z)-2-((6-methoxy-4-(2-methoxyethoxyl)isoquinolin-1-yl)oxy)-7,9-dimethyl-14a-(((1-methylcyclopropyl)sulfonyl)carbamoyl)-5,16-dioxo-1,2,3,5,6,7,8,9,10,11,13a,14,14a,15,16,16a-hexadecahydrocyclopropa[e]pyrrolo[1,2-a][1,4]diazacyclopentadecin-6-yl)carbamate]: the EC50 in assay [1] and in assay [2] was 4.82 to 103 nM each time.

As to `COCCOc1cnc(O[C@@H]2C[C@H]3C(=O)N[C@]4(C(=O)NS(=O)(=O)C5(C)CC5)C[C@H]4/C=C\CC[C@@H](C)C[C@@H](C)[C@H](NC(=O)OC4COC4)C(=O)N3C2)c2ccc(OC)cc12` [Compound 1157, oxetan-3-yl ((2R,6S,7R,9R,13aS,14aR,16aS,Z)-2-((6-methoxy-4-(2-methoxyethoxyl)isoquinolin-1-yl)oxy)-7,9-dimethyl-14a-(((1-methylcyclopropyl)sulfonyl)carbamoyl)-5,16-dioxo-1,2,3,5,6,7,8,9,10,11,13a,14,14a,15,16,16a-hexadecahydrocyclopropa[e]pyrrolo[1,2-a][1,4]diazacyclopentadecin-6-yl)carbamate], the EC50 in assay [1] and in assay [2] was 4.82 to 103 nM each time.

In the case of `COCCOc1cnc(O[C@@H]2C[C@H]3C(=O)N[C@]4(C(=O)NS(=O)(=O)C5CC5)C[C@H]4/C=C\CC[C@H](C)C[C@@H](C)[C@H](NC(=O)OC4COC4)C(=O)N3C2)c2ccc(OC)cc12` [Compound 1158, oxetan-3-yl ((2R,6S,7R,9S,13aS,14aR,16aS,Z)-14a-((cyclopropylsulfonyl)carbamoyl)-2-((6-methoxy-4-(2-methoxyethoxyl)isoquinolin-1-yl)oxy)-7,9-dimethyl-5,16-dioxo-1,2,3,5,6,7,8,9,10,11,13a,14,14a,15,16,16a-hexadecahydrocyclopropa[e]pyrrolo[1,2-a][1,4]diazacyclopentadecin-6-yl)carbamate], the EC50 in assay [1] and in assay [2] was 4.82 to 103 nM throughout.

As to `COCCOc1cnc(O[C@@H]2C[C@H]3C(=O)N[C@]4(C(=O)NS(=O)(=O)C5CC5)C[C@H]4/C=C\CC[C@@H](C)C[C@@H](C)[C@H](NC(=O)OC4COC4)C(=O)N3C2)c2ccc(OC)cc12` [Compound 1159, oxetan-3-yl ((2R,6S,7R,9R,13aS,14aR,16aS,Z)-14a-((cyclopropylsulfonyl)carbamoyl)-2-((6-methoxy-4-(2-methoxyethoxyl)isoquinolin-1-yl)oxy)-7,9-dimethyl-5,16-dioxo-1,2,3,5,6,7,8,9,10,11,13a,14,14a,15,16,16a-hexadecahydrocyclopropa[e]pyrrolo[1,2-a][1,4]diazacyclopentadecin-6-yl)carbamate], the EC50 in assay [1] and in assay [2] was 4.82 to 103 nM each time.

For `COc1cnc(O[C@@H]2C[C@H]3C(=O)N[C@]4(C(=O)NS(=O)(=O)C5CC5)C[C@H]4/C=C\CC[C@H](C)C[C@@H](C)[C@H](NC(=O)OC(C)(C)C)C(=O)N3C2)c2cc(Cl)ccc12` [Compound 1160, tert-butyl ((2R,6S,7R,9S,13aS,14aR,16aS,Z)-2-((7-chloro-4-methoxyisoquinolin-1-yl)oxy)-14a-((cyclopropylsulfonyl)carbamoyl)-7,9-dimethyl-5,16-dioxo-1,2,3,5,6,7,8,9,10,11,13a,14,14a,15,16,16a-hexadecahydrocyclopropa[e]pyrrolo[1,2-a][1,4]diazacyclopentadecin-6-yl)carbamate], the EC50 is < 5.46 nM in assay [1] and 4.82 to 103 nM in assay [2].

For the compound `COc1cnc(O[C@@H]2C[C@H]3C(=O)N[C@]4(C(=O)NS(=O)(=O)C5CC5)C[C@H]4/C=C\CC[C@@H](C)C[C@@H](C)[C@H](NC(=O)OC(C)(C)C)C(=O)N3C2)c2cc(Cl)ccc12` [Compound 1161, tert-butyl ((2R,6S,7R,9R,13aS,14aR,16aS,Z)-2-((7-chloro-4-methoxyisoquinolin-1-yl)oxy)-14a-((cyclopropylsulfonyl)carbamoyl)-7,9-dimethyl-5,16-dioxo-1,2,3,5,6,7,8,9,10,11,13a,14,14a,15,16,16a-hexadecahydrocyclopropa[e]pyrrolo[1,2-a][1,4]diazacyclopentadecin-6-yl)carbamate], the EC50 in assay [1] and in assay [2] was < 5.46 nM in each case.

As to `COc1ccc2c(O[C@@H]3C[C@H]4C(=O)N[C@]5(C(=O)NS(=O)(=O)C6(CF)CC6)C[C@H]5/C=C\CC[C@H](C)C[C@@H](C)[C@H](NC(=O)OC(C)(C)C)C(=O)N4C3)nc(Cl)cc2c1` [Compound 1162, tert-butyl ((2R,6S,7R,9S,13aS,14aR,16aS,Z)-2-((3-chloro-6-methoxyisoquinolin-1-yl)oxy)-14a-(((1-(fluoromethyl)cyclopropyl)sulfonyl)carbamoyl)-7,9-dimethyl-5,16-dioxo-1,2,3,5,6,7,8,9,10,11,13a,14,14a,15,16,16a-hexadecahydrocyclopropa[e]pyrrolo[1,2-a][1,4]diazacyclopentadecin-6-yl)carbamate], the EC50 in assay [1] and in assay [2] was 4.82 to 103 nM throughout.

Consider `COc1ccc2c(O[C@@H]3C[C@H]4C(=O)N[C@]5(C(=O)NS(=O)(=O)C6(CF)CC6)C[C@H]5/C=C\CC[C@@H](C)C[C@@H](C)[C@H](NC(=O)OC(C)(C)C)C(=O)N4C3)nc(Cl)cc2c1` [Compound 1163, tert-butyl ((2R,6S,7R,9R,13aS,14aR,16aS,Z)-2-((3-chloro-6-methoxyisoquinolin-1-yl)oxy)-14a-(((1-(fluoromethyl)cyclopropyl)sulfonyl)carbamoyl)-7,9-dimethyl-5,16-dioxo-1,2,3,5,6,7,8,9,10,11,13a,14,14a,15,16,16a-hexadecahydrocyclopropa[e]pyrrolo[1,2-a][1,4]diazacyclopentadecin-6-yl)carbamate], for which the EC50 in assay [1] and in assay [2] was < 5.46 nM in each case.

`COc1ccc2c(O[C@@H]3C[C@H]4C(=O)N[C@]5(C(=O)NS(=O)(=O)C6(CF)CC6)C[C@H]5/C=C\CC[C@H](C)C[C@@H](C)[C@H](NC(=O)OC(C)(C)C(F)(F)F)C(=O)N4C3)nc(Cl)cc2c1` [Compound 1164, 1,1,1-trifluoro-2-methylpropan-2-yl((2R,6S,7R,9S,13aS,14aR,16aS,Z)-2-((3-chloro-6-methoxyisoquinolin-1-yl)oxy)-14a-(((1-(fluoromethyl)cyclopropyl)sulfonyl)carbamoyl)-7,9-dimethyl-5,16-dioxo-1,2,3,5,6,7,8,9,10,11,13a,14,14a,15,16,16a-hexadecahydrocyclopropa[e]pyrrolo[1,2-a][1,4]diazacyclopentadecin-6-yl)carbamate]: the EC50 in assay [1] and in assay [2] was 4.82 to 103 nM each time.

Regarding `COc1ccc2c(O[C@@H]3C[C@H]4C(=O)N[C@]5(C(=O)NS(=O)(=O)C6(CF)CC6)C[C@H]5/C=C\CC[C@@H](C)C[C@@H](C)[C@H](NC(=O)OC(C)(C)C(F)(F)F)C(=O)N4C3)nc(Cl)cc2c1` [Compound 1165, 1,1,1-trifluoro-2-methylpropan-2-yl((2R,6S,7R,9R,13aS,14aR,16aS,Z)-2-((3-chloro-6-methoxyisoquinolin-1-yl)oxy)-14a-(((1-(fluoromethyl)cyclopropyl)sulfonyl)carbamoyl)-7,9-dimethyl-5,16-dioxo-1,2,3,5,6,7,8,9,10,11,13a,14,14a,15,16,16a-hexadecahydrocyclopropa[e]pyrrolo[1,2-a][1,4]diazacyclopentadecin-6-yl)carbamate], the EC50 in assay [1] and in assay [2] was < 5.46 nM each time.
